Data published in US9360471B2, “Anti-aging agents and methods to identify them” (priority 2009, dated 2016).
Where “and” joins values, the source holds several entries; their conditions need not be identical. Equal entries are not always repeated.

Legend:
cdc13-1 cells [1] = assay: cdc13-1 cell survival after cdc13-1p inactivation, colony formation assay; assay type: cell-based, budding yeast; conditions: for cell death triggered by inactivation of cdc13-1p (colony formation assay): 37° C. about 30 hrs, 6.7 μM PEITC, 5 mM silibinin, 1.25 mM selenite, 2.5 mM genistein, 250 μg/mL GSE, 50 μg/mL EGCG, 3 mg/mL bilberry extract
Experimental: To induce telomere dysfunction, fresh overnight cultures of cdc13-1 were diluted into YEPD medium with the indicated concentrations of glucose or 2-deoxyglucose and incubated at 37° C. for 24 hrs. For colony formation assay, treated cells were then serially diluted 10-fold in H2O and 5 μL was spotted onto regular YEPD plates. The plates were incubated at 24° C. for survived cells to form colonies. The starting number of live-cells was also counted by this colony formation assay. (B) Nitrogen restriction inhibits cell death induced by cdc13-1p inactivation as monitored by a colony formation assay. Cells were incubated in synthetic medium (SC) or SC—N (SC without amino acids and (NH4)2SO4 as nitrogen sources) at 37° C. for 24 hrs. The number of survived cells was counted using colony formation assay as described in 1A. (C-D) Inhibition of TOR by low doses of rapamycin (labeled as Rapa) (below growth inhibition concentration) can prevent cell death induced by cdc13-1p inactivation. Cells were incubated with the indicated concentrations of rapamycin in YEPD medium at 37° C. for 24 hrs. The number of survived cells was measured by the colony formation assay as in 1A. For growth curve, fresh overnight culture was diluted into YEPD medium and incubated at 24° C. in the presence of the indicated concentrations of rapamycin. Cell Density (OD595) was measured at the indicated time points and plotted against the time. (E) Deterioration of growth arrested cdc13-1 cells can be delayed by low dose of rapamycin (1 nM) and glucose restriction (0.5%) as measured by counting surviving cells using the colony formation assay. The data represent an average of three experiments.
(§1) (A) Cells were incubated at 37° C. to inactivated cdc13-1p, in YEPD medium, YEPD+1 nM rapamycin or YEPD with 0.5% glucose. At the indicated time points, an aliquot of cells was taken out and fixed with 50% ethanol at −20° C. for about 4 hrs, and then digested with 0.2 mg/mL RNase A in 50 mM Tris pH 7.6 at 37° C. overnight. The cells were next washed with 50 mM Tris pH 7.6 and treated with 40 μg/mL proteinase K at 55° C. for 2 hrs. After being washed again, cells were stained with 100 μg/mL propidium iodide for 20 min in the dark prior to FACS (Fluorescence activated cell sorter) analysis. […] Cells were incubated at 37° C. for 2 hours first, then diluted with a 37° C.-YEPD medium, YEPD with rapamycin to make a final concentration of 1 nM, or with a 37° C.-medium without glucose to make final 0.5% glucose. The cells were continuously incubated at 37° C. for 22 hrs. Surviving cells were counted using the colony formation assay.
The 6.7 μM PEITC, 5 mM silibinin, 1.25 mM selenite, 2.5 mM genistein, 250 μg/mL grape seed extract (GSE), 50 μg/mL EGCG, and 3 mg/mL bilberry extract (BE) were incubated with cells at 37° C. for about 30 hrs. The cell survival was measured by the colony formation assay at a permissive temperature 24° C.
In addition, limitation of nitrogen by SC—N medium (containing 0.67% yeast nitrogen base in absence of amino acids and (NH4)2SO4, 2% glucose, plus a mixture of 100 mg/L each of histidine, leucine, tryptophan and uracil for this yeast strain) prevented the cell death (FIG. 1B). […] After 60 hrs of incubation at 37° C., cell survival was at least 100-fold more than those without treatment.

human lymphoblastoid L40 = assay: mitochondrial mass in human lymphoblastoid L40, MitoTracker Green FM and FACS; assay type: cell-based; conditions: for mitochondrial mass: 2-day treatment, 10 μM LY294002, 2 μM DATS, 1 μM BITC, 1 μM PITC, 2 μg/mL resveratrol, 0.03 μM lycopene, 6.7 μM PEITC, 5 mM silibinin, 1.25 mM selenite, 2.5 mM genistein, 250 μg/mL GSE, 50 μg/mL EGCG, 3 mg/mL bilberry extract, 1 μM AITC, 50 pM rapamycin, 250 μM AICAR
From the text: Mitochondrial mass was monitored by staining the 60% Ethanol-fixed cells with MitoTracker Green FM prior to FACS analysis.

[2] = test system: senescent WI-38 cells (human primary fibroblast); assay: loss of senescent WI-38 cells, β-galactosidase (X-gal) staining; assay type: cell-based; conditions: 56 days in senescence; 50 pM rapamycin, 250 μM AICAR, 20 μg/mL EGCG, 1.6 μg/mL GSE, 20 μg/mL bilberry extract, 1 μM AITC, 12.5 μM 2-deoxyglucose; 3-day-on/7-day-off (AICAR 2-day-on/8-day-off)
Experimental: AICAR and reduced glucose treatment were incubated with cells in a 2-day-on/8-day-off cycle, while the rest of agents were in a 3-day-on/7-day-off cycle. The treatment started at passage 29. The medium was refreshed every 3 days. After 56-days from passage 31 (senescence), the cells were briefly fixed in 2% formaldehyde/0.2% glutaraldehyde and stained with 1 mg/mL 5-bromo-4-chloro-3-indolyl β-D-galactoside (X-gal) (in buffer containing 40 mM citric acid/sodium phosphate, pH 6.0, 5 mM potassium ferrocyanide, 5 mM potassium ferricyanide, 150 mM NaCl, and 2 mM MgCl2) at 37° C. for 18 hrs for the senescence marker, cellular β-galactosidase activity (blue in color picture and dark grey in black/white picture). Surviving senescent cells were viewed under a microscope.
This invention discloses that CR or rapamycin also prolongs senescence and prevents cell death induced by telomere dysfunction in human cells. Primary human embryonic lung fibroblasts WI-38 were used. […] Cells at passage 29 were treated with 50 pM rapamycin. The treatment was on a 10-day cycle of 3-day with and 7-day without rapamycin (also termed as 3-day-on/7-day-off cycle). […] Due to increased cytosol β-galactosidase activity, senescent cells are stained a blue color (shown as dark grey in black/white picture). […] Rapamycin didn't transform cells since the senescence marker was still present and cell growth was not observed.

marine models = marine models (Calvert 2008); cited from earlier work
NIH3T3 cells = assay: mitochondrial mass in NIH3T3 cells treated with TPA; assay type: cell-based, mouse; conditions: 10 μM TPA, two days
Experimental: NIH3T3 cells were incubated in DMEM medium (DMEM with 10% FCS, 100 units/mL penicillin, 100 μg/mL streptomycin and 2 mM glutamine) in the presence of control DMSO, 10 μM TPA, 1 nM rapamycin, 10 μM TPA+1 nM rapamycin, 40 μM AICAR, or 10 μM TPA+40 μM AICAR at 37° C. in a humidified atmosphere consisting of 95% air and 5% CO2 for two days. Cells were then harvested by trypsin and fixed by 60% ethanol. The cells were stained with MitoTracker Greeen FM in darkness for 30 min prior to FACS analysis. The data represents the average of a triplica-experiment.

WI-38 cells = assay: growth and population doubling of WI-38 cells; assay type: cell-based, human; conditions: 25 pM rapamycin; without rapamycin 5.18 or 5.12
Experimental: (A) WI-38 cells were treated with the indicated concentrations of rapamycin as in FIG. 7. The treatment started at passage 29. Cells entered senescence at passage 31. After 65-days in senescence, surviving cells were measured by MTT (3-(4,5-dimethylthiazol-2-yl)-2,5-diphenyltetrazolium bromide, a tetrazole) staining. The purple color of MTT generated by mitochondrial reductase was read in 570 nm by a microplate reader. The data is a representative of three independent duplica-experiments. (B) The effect of rapamycin on growth of WI-38 cells. Cells were cultured as in FIG. 7. Arrows indicate the time point when rapamycin was added. 25 pM rapamycin has little effect on growth rate, but increases the population doubling (PD) from 5.18 to 6.82. Population doublings were calculated using the following formula: PD=log(Nf/N0)/log 2, where Nf is the final cell number and N0 is the number of initially seeded cells. Data is a representative of two independent duplica-experiments. (C) The low doses of rapamycin increase protein levels of p53, p21 and pRB. WI-38 cells on the 20th day after the last split (senescence) were treated with rapamycin for 18 hrs. Cell lysates were then analyzed by Western blotting using antibodies specifically against p53, p21 or pRB.

cdc13-1 cells [3] = assay: DNA content / cell cycle FACS analysis after cdc13-1p inactivation; assay type: cell-based, budding yeast; conditions: rapamycin 1 nM in YEPD, 37° C. for 2 hrs
Experimental: as §1

Compound: O=[Se]([O-])[O-].[Na+].[Na+] [selenite, selenite (Na2SeO3)]
- cell death triggered by inactivation of cdc13-1p (colony formation assay) (cdc13-1 cells [1]): inhibited cell death
- mitochondrial mass (human lymphoblastoid L40): increased

Compound: CC(C)=CCC/C(C)=C/C=C/C(C)=C/C=C/C(C)=C/C=C/C=C(C)/C=C/C=C(C)/C=C/C=C(\C)CCC=C(C)C [lycopene]
- mitochondrial mass (human lymphoblastoid L40): increased

Compound: O=C(O[C@@H]1Cc2c(O)cc(O)cc2O[C@@H]1c1cc(O)c(O)c(O)c1)c1cc(O)c(O)c(O)c1 [EGCG, Epigallocatechin gallate]
- cell death triggered by inactivation of cdc13-1p (colony formation assay) (cdc13-1 cells [1]): inhibited cell death
- mitochondrial mass (human lymphoblastoid L40): increased
- loss of the senescent WI-38 cells [2]: prevented

Compound: O=CC[C@@H](O)[C@H](O)[C@H](O)CO [2-deoxyglucose, reference compound]
- cell death induced by inactivation of cdc13-1p (colony formation assay) (cdc13-1 cells [1]; 200 μM added to YEPD with 2% glucose, 37° C. 22 hrs): prevented cell death effectively
- mitochondria mass (human lymphoblastoid L40; 12.5 μM 2-deoxyglucose): increased mitochondria mass
- loss of the senescent WI-38 cells [2]: prevented

Compound: S=C=Nc1ccccc1 [phenyl isothiocyanate]
- mitochondrial mass (human lymphoblastoid L40): increased

Compound: O=c1c(-c2ccc(O)cc2)coc2cc(O)cc(O)c12 [genistein]
- cell death triggered by inactivation of cdc13-1p (colony formation assay) (cdc13-1 cells [1]): inhibited cell death
- mitochondrial mass (human lymphoblastoid L40): increased

Compound: CN(C)C(=N)N=C(N)N [metformin]
- myocardial infarction (marine models): can reduce myocardial infarction

Compound: Oc1ccc(C=Cc2cc(O)cc(O)c2)cc1 [resveratrol]
- mitochondrial mass (human lymphoblastoid L40): increased

Compound: C=CCSSSCC=C [diallyl trisulfide]
- mitochondrial mass (human lymphoblastoid L40): increased

Compound: CCCCCCCCCCCCCC(=O)O[C@@H]1[C@@H](C)[C@@]2(O)[C@@H](C=C(CO)C[C@]3(O)C(=O)C(C)=C[C@@H]23)[C@@H]2C(C)(C)[C@]12OC(C)=O [TPA, 12-O-tetradecanoylphorbol 13-acetate]
- mitochondrial mass in NIH 3T3 cells (NIH3T3 cells): dramatically decreased the mitochondrial mass

Compound: C=CCN=C=S [AITC, allyl isothiocyanate]
- mitochondrial mass (human lymphoblastoid L40): increased
- loss of the senescent WI-38 cells [2]: prevented

Compound: S=C=NCc1ccccc1 [benzyl isothiocyanate]
- mitochondrial mass (human lymphoblastoid L40): increased

Compound: CO[C@H]1C[C@@H]2CC[C@@H](C)[C@@](O)(O2)C(=O)C(=O)N2CCCC[C@H]2C(=O)O[C@H]([C@H](C)C[C@@H]2CC[C@@H](O)[C@H](OC)C2)CC(=O)[C@H](C)/C=C(\C)[C@@H](O)[C@@H](OC)C(=O)[C@H](C)C[C@H](C)/C=C/C=C/C=C/1C [rapamycin]
- cell survival compared with those without treatment (cdc13-1 cells [1]; low dose of rapamycin (1 nM), after 60 hrs of incubation at 37° C.): at least 100 fold
- population doubling (PD), replication potential (WI-38 cells): 6.8 and 6.82
- cells entered the G2/M phase of cell cycle (cdc13-1 cells [3]): more than 95%

Compound: S=C=NCCc1ccccc1 [PEITC, phenethyl isothiocyanate]
- cell death triggered by inactivation of cdc13-1p (colony formation assay) (cdc13-1 cells [1]): inhibited cell death
- mitochondrial mass (human lymphoblastoid L40): increased
